For this test, the target named is T1, Enoyl-[acyl-carrier-protein] reductase [NADH] (Mycobacterium tuberculosis, UniProt P9WGR1).
T1 sequence (P9WGR1 whole entry): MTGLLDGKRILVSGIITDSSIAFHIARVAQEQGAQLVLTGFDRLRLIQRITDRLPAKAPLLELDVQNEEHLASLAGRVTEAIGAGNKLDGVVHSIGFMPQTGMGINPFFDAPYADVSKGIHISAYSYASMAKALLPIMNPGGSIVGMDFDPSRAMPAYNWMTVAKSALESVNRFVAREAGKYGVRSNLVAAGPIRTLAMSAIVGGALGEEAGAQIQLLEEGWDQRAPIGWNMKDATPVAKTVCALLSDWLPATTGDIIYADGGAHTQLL
Briefly: Inhibition of Mycobacterium tuberculosis InhA.

Among the data in ChEMBL document CHEMBL1153618, “Discovery of potential new InhA direct inhibitors based on pharmacophore and 3D-QSAR analysis followed by in silico screening” (Eur J Med Chem, 2009) are IC50 values, retold here.

In general, IC50 refers to the concentration that inhibits the measured activity by half. A high value points to weaker potency in that assay.

In the case of `COc1ccc(OC)c(/C=N/NC2=CS(=O)(=O)c3ccccc32)c1`, it took 5.13 µM to reach half-maximal inhibition (IC50). This lies in the single-digit micromolar range.

Molecule `COc1ccc(/C=C2\SC(N3CCCCCC3)NC2=O)cc1OC` (stereo not given) gave an IC50 of 11 µM. This IC50 is about 2.1-fold higher than that of the molecule before.

`COc1cc(Cl)ccc1NC(=O)c1ccc(C)c([N+](=O)[O-])c1` had an IC50 of 5.01 µM.

For the molecule `Cc1cc(Cl)ccc1OCC(=O)Nc1cccc([N+](=O)[O-])c1C`, the IC50 is 3.47 µM.

`Cc1ccc(OC(=O)c2ccccc2[N+](=O)[O-])c(Br)c1` registered an IC50 of 9.55 µM.

The molecule `COc1ccc(Cl)cc1NC(=O)c1ccc(OC)c([N+](=O)[O-])c1` registered an IC50 of 5.01 µM.

On to `COc1ccc(Cl)cc1NC(=O)c1ccc(Cl)c([N+](=O)[O-])c1`, for which half-maximal inhibition (IC50) required 4.07 µM.

Consider `CCN(CC)c1ccc(/C=C2/SC(N3CCCCC3)=NC2=O)cc1`, for which the IC50 turned out to be 6.17 µM.

Consider `Cc1ccc(NC(=O)c2sc3ccccc3c2Cl)cc1[N+](=O)[O-]`, for which 2.14 µM corresponded to half-maximal inhibition (IC50). This IC50 is about 2.9-fold lower than that of the molecule before.

As to `Cc1ccc(C(=O)Nc2ccc(Cl)cc2Cl)cc1[N+](=O)[O-]`, the half-inhibitory concentration (IC50) came out at 8.71 µM.

For `CCN(CC)c1ccc(NC(=O)c2ccccc2[N+](=O)[O-])cc1`, the IC50 is 4.37 µM. Compared with the last molecule, the IC50 is about 2-fold lower.

In the case of `O=[N+]([O-])c1cc(/N=C/c2ccc(Cl)cc2Cl)ccc1Cl`, half-maximal inhibition (IC50) was put at 4.68 µM.

`CCOC(=O)C1=C(C)N/C(=C/c2cc(OC)ccc2OC)C1=O` registered an IC50 of 3.63 µM.

With `COc1ccc(/C=C2/SC(N3CCC(C)CC3)=NC2=O)cc1OC`, the IC50 amounted to 10.7 µM.

Turning to `COc1ccc(C(=O)Nc2cc(Cl)ccc2Cl)cc1[N+](=O)[O-]`, half-maximal inhibition (IC50) was put at 13.8 µM. The IC50 values of the last two molecules are within 1.5-fold of each other.

Take `O=C(Nc1ccc(Cl)cc1Cl)c1ccccc1[N+](=O)[O-]`: the IC50 stood at 20 µM.

In the case of `CCN(CC)c1ccc(/C=C2/N=C(c3ccccc3)OC2=O)cc1`, it took 3.31 µM to reach half-maximal inhibition (IC50).

Molecule `COc1cc(NC(=O)c2ccc(C)cc2[N+](=O)[O-])cc(OC)c1` returned an IC50 of 1.35 µM.

`O=C1N=C(Nc2cc(Cl)cc(Cl)c2)S/C1=C/c1ccco1` had an IC50 of 17.8 µM.

`Cc1ccc(NC(=O)c2ccccc2[N+](=O)[O-])c(C)c1` came in with an IC50 of 10.5 µM.

Take `O=C(Nc1cc(Cl)ccc1Cl)c1ccc(Cl)c([N+](=O)[O-])c1`: inhibition was half-maximal at 20 µM (IC50).

`O=C(Nc1ccc(Cl)c(Cl)c1)c1ccc(Cl)c([N+](=O)[O-])c1` displayed an IC50 of 52.5 µM.

In the case of `COc1cc(Cl)cc(/C=C2/SC(c3ccccc3)=NC2=O)c1O`, the midpoint of inhibition, the IC50, lay at 10.5 µM. Against the preceding molecule, the IC50 is about 5-fold lower.

With `COc1ccc(C(=O)Nc2cc(Cl)cc(Cl)c2)cc1[N+](=O)[O-]`, the IC50 is 7.08 µM.

The molecule `COc1ccc(/C=C2/SC(N3CCCCC3)=NC2=O)cc1OC` displayed an IC50 of 11.5 µM.

Take `O=C(Nc1cc(Cl)cc(Cl)c1)c1ccccc1[N+](=O)[O-]`: the IC50 worked out at 6.17 µM.

In the case of `COC(=O)c1c(NC(=O)c2ccccc2[N+](=O)[O-])sc2c1CCC2`, the midpoint of inhibition, the IC50, lay at 1.82 µM.

Regarding `CCOc1ccc(/C=C2/SC(c3ccccc3)=NC2=O)cc1C`, the IC50 came out at 10 µM. Against the preceding molecule, the IC50 is about 5.5-fold higher.

For the molecule `O=C(Nc1cc(Cl)c(Cl)cc1Cl)c1ccccc1[N+](=O)[O-]`, the IC50 was determined as 12 µM. This IC50 and that of the molecule before are within 1.5-fold of each other.

Molecule `COc1ccc(/C=C2/SC(N3CCCC3)=NC2=O)cc1OC` yielded an IC50 of 7.24 µM.
